± gives the expanded uncertainty stated by the source.
Test: refractive index (Na D-line) (dimensionless)
Details: 101.33 kPa, Liquid, Standard Abbe refractometry

Cc1ccc(C)o1 [2,5-dimethylfuran]
Details | refractive index
283.15 K | 1.4477 ± 0.00037
285.65 K | 1.44645 ± 0.00037
288.15 K | 1.44494 ± 0.00037
290.65 K | 1.44362 ± 0.00037
293.15 K | 1.44218 ± 0.00037
295.65 K | 1.44079 ± 0.00037
298.15 K | 1.43942 ± 0.00037
300.65 K | 1.43796 ± 0.00037
303.15 K | 1.43665 ± 0.00037
305.65 K | 1.43513 ± 0.00037
308.15 K | 1.43383 ± 0.00037
310.65 K | 1.4323 ± 0.00037
313.15 K | 1.43098 ± 0.00037
315.65 K | 1.42947 ± 0.00037
318.15 K | 1.42815 ± 0.00037
320.65 K | 1.42664 ± 0.00037
323.15 K | 1.42525 ± 0.00037
325.65 K | 1.42381 ± 0.00037
328.15 K | 1.42239 ± 0.00037
330.65 K | 1.42098 ± 0.00037
333.15 K | 1.41948 ± 0.00037
335.65 K | 1.41815 ± 0.00037
338.15 K | 1.41657 ± 0.00037

c1ccoc1 [furan]
Details | refractive index
283.15 K | 1.42784 ± 0.00037
285.65 K | 1.42625 ± 0.00037
288.15 K | 1.42463 ± 0.00037
290.65 K | 1.42303 ± 0.00037
293.15 K | 1.42141 ± 0.00037
295.65 K | 1.41979 ± 0.00037
298.15 K | 1.41814 ± 0.00037
300.65 K | 1.4165 ± 0.00037
303.15 K | 1.41485 ± 0.00037

Cc1ccco1 [2-methylfuran]
Details | refractive index
283.15 K | 1.43942 ± 0.00037
285.65 K | 1.43794 ± 0.00037
288.15 K | 1.43644 ± 0.00037
290.65 K | 1.43495 ± 0.00037
293.15 K | 1.43344 ± 0.00037
295.65 K | 1.43194 ± 0.00037
298.15 K | 1.43044 ± 0.00037
300.65 K | 1.42893 ± 0.00037
303.15 K | 1.42742 ± 0.00037
305.65 K | 1.4259 ± 0.00037
308.15 K | 1.4244 ± 0.00037
310.65 K | 1.42289 ± 0.00037
313.15 K | 1.42138 ± 0.00037
315.65 K | 1.41984 ± 0.00037
318.15 K | 1.41831 ± 0.00037
320.65 K | 1.41675 ± 0.00037
323.15 K | 1.41521 ± 0.00037
325.65 K | 1.41366 ± 0.00037
328.15 K | 1.41212 ± 0.00037
330.65 K | 1.41059 ± 0.00037
333.15 K | 1.40907 ± 0.00037
335.65 K | 1.40747 ± 0.00037
338.15 K | 1.40589 ± 0.00037

Source: the NIST ThermoML archive (doi:10.1016/j.tca.2015.08.013)
